According to ChEMBL document CHEMBL2429805, “Studies toward the development of new silicon-containing building blocks for the direct (18)F-labeling of peptides” (J Med Chem, 2013):
Values belong to the compound of their own block, whether it stands above or below them.

How the values were obtained:
[1] = Half life of the compound in water; type: physicochemical
[2] = Drug metabolism in PBS buffer assessed as compound hydrolysis; type: physicochemical
[3] = Drug metabolism in 0.9% NaCl assessed as compound hydrolysis; type: physicochemical
[4] = molecular target: T1, Gastrin-releasing peptide receptor (Homo sapiens, UniProt P30550); test: Displacement of [125I]-Tyr4-bombesin from GRP receptor in human PC3 cells after 1 hr by gamma-counting analysis; type: cell-based, PC-3
T1 sequence (P30550 whole entry): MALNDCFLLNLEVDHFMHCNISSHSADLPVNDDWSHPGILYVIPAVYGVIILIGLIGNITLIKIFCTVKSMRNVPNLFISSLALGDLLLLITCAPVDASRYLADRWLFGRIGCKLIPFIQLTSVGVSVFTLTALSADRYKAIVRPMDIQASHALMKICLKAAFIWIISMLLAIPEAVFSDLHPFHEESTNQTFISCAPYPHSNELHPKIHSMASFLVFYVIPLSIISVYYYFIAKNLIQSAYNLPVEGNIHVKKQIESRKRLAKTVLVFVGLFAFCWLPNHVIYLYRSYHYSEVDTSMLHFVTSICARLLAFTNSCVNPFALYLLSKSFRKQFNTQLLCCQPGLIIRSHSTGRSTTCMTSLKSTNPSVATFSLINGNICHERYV

[5] = molecular target: T1, Gastrin-releasing peptide receptor; test: Binding affinity to GRP receptor (unknown origin)
[6] = molecular target: T1, Gastrin-releasing peptide receptor; test: Displacement of [125I]-Tyr4-bombesin from GRP receptor in human PC3 cells; type: cell-based, PC-3

half-life [1]: 16 h
SMILES: CC(C)(C)[Si](F)(CCn1cc(CC(N)C(=O)O)nn1)C(C)(C)C (stereo not drawn)

Drug metabolism [2]: Active | Drug metabolism [3]: Active | half-life [1]: 16 h
SMILES: CC(C)(C)[Si]([18F])(CCn1cc(CC(N)C(=O)O)nn1)C(C)(C)C (stereo not drawn)

IC50 [5]: 22.9 nM
SMILES: CC(C)C[C@H](NC(=O)C[C@H](O)[C@H](CC(C)C)NC(=O)[C@H](Cc1cnc[nH]1)NC(=O)CN(C)C(=O)[C@@H](NC(=O)[C@H](C)NC(=O)[C@H](Cc1c[nH]c2ccccc12)NC(=O)[C@H](CCC(N)=O)NC(=O)CCCCNC(=O)[C@H](CCCNC(=N)N)NC(=O)Cc1ccc([Si](F)(C(C)(C)C)C(C)(C)C)cc1)C(C)C)C(N)=O

half-life [1]: 8 h
SMILES: CC(C)(C)[Si](F)(CCO)C(C)(C)C

Continued, compound first:

SMILES: CC(C)C[C@H](NC(=O)C[C@H](O)[C@H](CC(C)C)NC(=O)[C@H](Cc1cnc[nH]1)NC(=O)CN(C)C(=O)[C@@H](NC(=O)[C@H](C)NC(=O)[C@H](Cc1c[nH]c2ccccc12)NC(=O)[C@H](CCC(N)=O)NC(=O)CCCCNC(=O)[C@H](CCCNC(=N)N)NC(=O)C(O)C(O)C(=O)NCCc1ccc([Si](F)(C(C)(C)C)C(C)(C)C)cc1)C(C)C)C(N)=O (stereo partly drawn)
IC50 [4]: 23 nM

SMILES: CSCC[C@H](NC(=O)[C@H](CC(C)C)NC(=O)[C@H](Cc1cnc[nH]1)NC(=O)CNC(=O)[C@@H](NC(=O)[C@H](C)NC(=O)[C@H](Cc1c[nH]c2ccccc12)NC(=O)[C@H](CCC(N)=O)NC(=O)[C@H](CC(N)=O)NC(=O)CNC(=O)[C@H](CC(C)C)NC(=O)[C@H](CCCCNC(=O)c1ccc(F)cc1)NC(=O)[C@H](CCC(N)=O)NC(=O)[C@@H]1CCC(=O)N1)C(C)C)C(N)=O
IC50 [6]: 5.3 nM
